Square brackets hold non-standard residues; d marks the D form. Peptide text beside a SMILES is read from it. Aib = CC(C)(N)C(=O)O
Columns and labels:
human GLP-2 receptor = target: T1, human GLP-2 receptor (Homo sapiens, UniProt O95838, D470N); experiment: GLP-2 receptor potency assay (cAMP AlphaScreen, HEK293 cells stably expressing GLP-2R); assay type: cell-based; settings: cAMP response, HEK293 cells expressing human GLP-2R
T1 sequence (O95838 1-553 D470N): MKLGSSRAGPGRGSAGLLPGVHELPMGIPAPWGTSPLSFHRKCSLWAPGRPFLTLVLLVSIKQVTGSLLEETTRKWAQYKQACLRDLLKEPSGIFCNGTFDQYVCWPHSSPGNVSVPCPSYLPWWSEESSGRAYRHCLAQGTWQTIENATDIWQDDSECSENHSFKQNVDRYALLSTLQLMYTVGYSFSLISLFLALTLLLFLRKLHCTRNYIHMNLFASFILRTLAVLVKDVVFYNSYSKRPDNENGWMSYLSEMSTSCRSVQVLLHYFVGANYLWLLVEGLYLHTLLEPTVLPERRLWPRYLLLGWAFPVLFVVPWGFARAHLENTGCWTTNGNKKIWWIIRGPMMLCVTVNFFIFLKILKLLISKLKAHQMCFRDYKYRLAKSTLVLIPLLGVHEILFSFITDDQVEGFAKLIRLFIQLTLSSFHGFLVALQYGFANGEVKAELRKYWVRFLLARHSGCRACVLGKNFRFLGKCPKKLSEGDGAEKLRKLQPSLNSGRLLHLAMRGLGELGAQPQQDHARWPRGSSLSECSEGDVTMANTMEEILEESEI
Excerpt: (§1) One useful in vitro assay for measuring GLP-1 and GLP-2 receptor activity is quantitation of cAMP, i.e. 3′-5′-cyclic adenosine monophosphate, which is a second messenger essential in many biological processes, and one of the most ubiquitous mechanisms for regulating cellular functions. […] Test compounds eliciting an increase in the intracellular level of cAMP can be tested in these assays, and the response normalized relative to a positive and negative control (vehicle) to calculate the EC50 and maximal response from the concentration response curve using the 4-parameter logistic (4PL) nonlinear model for curve fitting.
The hGLP2-R was purchased from MRC-geneservice, Babraham, Cambridge as an Image clone: 5363415 (11924-I17). For subcloning into a mammalian expression vector, primers for subcloning were obtained from DNA-Technology, Risskov, Denmark. The 5′ and 3′ primers used for the PCR reaction include terminal restriction sites for cloning and the context of the 5′ primer is modified to a Kozak consensus without changing the sequence of the product encoded by the ORF. A standard PCR reaction was run using Image clone 5363415 (11924-117) as a template with the above mentioned primers and Polymerase Herculase II Fusion in a total vol. of 50 μl. The generated PCR product was purified using GFX PCR and Gel band purification kit, digested with restriction enzymes and cloned into the mammalian expression vector using Rapid DNA Ligation Kit. Ligation reaction was transformed to XL10 Gold Ultracompetent cells and colonies were picked for DNA production using Endofree Plasmid maxi kit. Subsequent sequence analysis was conducted by MWG Eurofins, Germany.
HEK293 cells were transfected using the Lipofectamine PLUS transfection method. The day before transfection, HEK293 cells were seeded in two T75 flasks at a density of 2×10^6 cells/T75 flask in cell culturing medium without antibiotics. On the day of transfection, cells were washed with 1×DPBS and medium was replaced with Optimem to a volume of 5 mL/T75 flask before addition of Lipofectamine-plasmid complexes were added gently and drop wise to the cells in T75 flasks and replaced with growth medium after 3 hours and again to growth medium supplemented with 500 μg/mL G418 after 24 hours. Following 4 weeks in G418 selection, clones were picked and tested in a functional GLP-2 receptor potency assay as described below.
(§2) The cAMP AlphaScreen assay from Perkin Elmer was used to quantitate the cAMP response to activation of the GLP1 and GLP2 receptor, respectively. […] Data from test compounds eliciting an increase in the intracellular level of cAMP were normalized relative to the positive and negative control (vehicle) to calculate the EC50 and maximal response from the concentration response curve.

human GLP-1 receptor = target: T2, human GLP-1 receptor (Homo sapiens, UniProt P43220); experiment: GLP-1 receptor potency assay (cAMP AlphaScreen, HEK293 cells stably expressing GLP-1R); assay type: cell-based; settings: cAMP response, HEK293 cells expressing human GLP-1R; read-out: EC50 GLP-1
T2 construct: expressed in transfected cells
Excerpt: as §1
The cDNA encoding the human glucagon-like peptide 1 receptor (GLP-1R) (primary accession number P43220) was cloned from the cDNA BC112126 (MGC:138331/IMAGE:8327594). The DNA encoding the GLP-1-R was amplified by PCR using primers encoding terminal restriction sites for subcloning. The 5′-end primers additionally encoded a near Kozak consensus sequence to ensure efficient translation. […] The PCR products encoding the GLP-1-R were subcloned into a mammalian expression vector containing a neomycin (G418) resistance marker. The mammalian expression vectors encoding the GLP-1-R were transfected into HEK293 cells by a standard calcium phosphate transfection method. 48 hours post-transfection, cells were seeded for limited dilution cloning and selected with 1 mg/ml G418 in the culture medium. Following 3 weeks in G418 selection clones were picked and tested in a functional GLP-1 receptor potency assay as described below.
as §2

T2 sequence (P43220 24-463): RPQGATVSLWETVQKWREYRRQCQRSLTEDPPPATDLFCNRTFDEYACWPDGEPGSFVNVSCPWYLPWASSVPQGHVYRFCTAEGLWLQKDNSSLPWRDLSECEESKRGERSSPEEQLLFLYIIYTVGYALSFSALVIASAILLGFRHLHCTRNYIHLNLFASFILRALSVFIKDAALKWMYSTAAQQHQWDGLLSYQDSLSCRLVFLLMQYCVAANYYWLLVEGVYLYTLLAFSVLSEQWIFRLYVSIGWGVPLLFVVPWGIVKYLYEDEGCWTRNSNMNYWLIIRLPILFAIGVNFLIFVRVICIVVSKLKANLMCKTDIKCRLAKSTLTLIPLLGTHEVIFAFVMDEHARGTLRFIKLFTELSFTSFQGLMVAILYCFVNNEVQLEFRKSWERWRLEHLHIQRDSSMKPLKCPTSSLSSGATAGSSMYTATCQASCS

Compound	EC50 (human GLP-2 receptor) [nM]	EC50 (human GLP-1 receptor) [nM]
CC[C@H](C)[C@H](NC(=O)[C@H](Cc1ccccc1)NC(=O)[C@H](CC(=O)O)NC(=O)[C@H](CCCNC(=N)N)NC(=O)[C@H](C)NC(=O)[C@H](C)NC(=O)[C@H](CCC(N)=O)NC(=O)[C@H](CCC(=O)O)NC(=O)[C@H](CC(=O)O)NC(=O)[C@H](CC(C)C)NC(=O)[C@@H](NC(=O)[C@@H](NC(=O)[C@H](C)NC(=O)[C@H](CC(C)C)NC(=O)[C@H](CCC(=O)O)NC(=O)[C@H](CO)NC(=O)[C@@H](NC(=O)[C@H](Cc1ccccc1)NC(=O)[C@@H](NC(=O)CNC(=O)[C@H](CCC(=O)O)NC(=O)C(C)(C)NC(=O)[C@@H](N)Cc1c[nH]cn1)[C@@H](C)O)[C@@H](C)O)[C@@H](C)O)[C@@H](C)CC)C(=O)N[C@@H](CC(N)=O)C(=O)N[C@@H](Cc1c[nH]c2ccccc12)C(=O)N[C@@H](CC(C)C)C(=O)N[C@@H](CCCCN)C(=O)N[C@@H](CCC(=O)O)C(=O)N[C@@H](CCC(N)=O)C(=O)N[C@@H](CCCCN)C(=O)N[C@H](C(=O)N[C@H](C(=O)N[C@@H](CC(=O)O)C(=O)O)[C@@H](C)O)[C@@H](C)CC [Compound 37] (H-H[Aib]EGTFTSELATILDEQAARDFINWLKEQKITD-OH)	0.16	0.007
CC[C@H](C)[C@H](NC(=O)[C@H](CC(C)C)NC(=O)[C@H](Cc1c[nH]c2ccccc12)NC(=O)[C@H](C)NC(=O)[C@@H](NC(=O)[C@H](Cc1ccccc1)NC(=O)[C@H](CC(=O)O)NC(=O)[C@H](CCCNC(=N)N)NC(=O)[C@H](C)NC(=O)[C@H](C)NC(=O)[C@H](CCCCN)NC(=O)CNC(=O)[C@H](CC(=O)O)NC(=O)[C@H](CC(C)C)NC(=O)[C@@H](NC(=O)[C@@H](NC(=O)[C@H](C)NC(=O)[C@H](CC(C)C)NC(=O)[C@H](CCC(=O)O)NC(=O)[C@H](CO)NC(=O)[C@H](CO)NC(=O)[C@H](Cc1ccccc1)NC(=O)[C@@H](NC(=O)CNC(=O)[C@H](CCC(=O)O)NC(=O)C(C)(C)NC(=O)[C@@H](N)Cc1c[nH]cn1)[C@@H](C)O)[C@@H](C)O)[C@@H](C)CC)[C@@H](C)CC)C(=O)N[C@@H](C)C(=O)N[C@@H](Cc1c[nH]cn1)C(=O)N[C@@H](CCCCN)C(=O)N[C@H](C(=O)N[C@H](C(=O)N[C@@H](CC(=O)O)C(=O)O)[C@@H](C)O)[C@@H](C)CC [Compound 32] (H-H[Aib]EGTFSSELATILDGKAARDFIAWLIAHKITD-OH)	0.15	0.038
CC[C@H](C)[C@H](NC(=O)[C@H](CC(C)C)NC(=O)[C@H](Cc1c[nH]c2ccccc12)NC(=O)[C@H](C)NC(=O)[C@@H](NC(=O)[C@H](Cc1ccccc1)NC(=O)[C@H](CC(=O)O)NC(=O)[C@H](CCCNC(=N)N)NC(=O)[C@H](C)NC(=O)[C@H](C)NC(=O)[C@H](CCC(N)=O)NC(=O)[C@H](CCC(=O)O)NC(=O)[C@H](CC(=O)O)NC(=O)[C@H](CC(C)C)NC(=O)[C@@H](NC(=O)[C@@H](NC(=O)[C@H](C)NC(=O)[C@H](CC(C)C)NC(=O)[C@H](CCC(=O)O)NC(=O)[C@H](CO)NC(=O)[C@@H](NC(=O)[C@H](Cc1ccccc1)NC(=O)[C@@H](NC(=O)CNC(=O)[C@H](CCC(=O)O)NC(=O)C(C)(C)NC(=O)[C@@H](N)Cc1c[nH]cn1)[C@@H](C)O)[C@@H](C)O)[C@@H](C)O)[C@@H](C)CC)[C@@H](C)CC)C(=O)N[C@@H](C)C(=O)N[C@@H](Cc1ccc(O)cc1)C(=O)N[C@@H](CCCCN)C(=O)N[C@H](C(=O)N[C@H](C(=O)N[C@@H](CC(=O)O)C(=O)O)[C@@H](C)O)[C@@H](C)CC [Compound 20] (H-H[Aib]EGTFTSELATILDEQAARDFIAWLIAYKITD-OH)	0.26	0.012
CC[C@H](C)[C@H](NC(=O)[C@H](Cc1ccccc1)NC(=O)[C@H](CC(=O)O)NC(=O)[C@H](CCCNC(=N)N)NC(=O)[C@H](C)NC(=O)[C@H](C)NC(=O)[C@H](CCC(N)=O)NC(=O)[C@H](CCC(=O)O)NC(=O)[C@H](CC(=O)O)NC(=O)[C@H](CC(C)C)NC(=O)[C@@H](NC(=O)[C@@H](NC(=O)[C@H](C)NC(=O)[C@H](CC(C)C)NC(=O)[C@H](CCC(=O)O)NC(=O)[C@H](CO)NC(=O)[C@@H](NC(=O)[C@H](Cc1ccccc1)NC(=O)[C@@H](NC(=O)CNC(=O)[C@H](CCC(=O)O)NC(=O)C(C)(C)NC(=O)[C@@H](N)Cc1c[nH]cn1)[C@@H](C)O)[C@@H](C)O)[C@@H](C)O)[C@@H](C)CC)C(=O)N[C@@H](C)C(=O)N[C@@H](Cc1c[nH]c2ccccc12)C(=O)N[C@@H](CC(C)C)C(=O)N[C@H](C(=O)N[C@@H](CCC(N)=O)C(=O)N[C@@H](Cc1c[nH]cn1)C(=O)N[C@@H](CCCCN)C(=O)N[C@H](C(=O)N[C@H](C(=O)N[C@@H](CC(=O)O)C(=O)O)[C@@H](C)O)[C@@H](C)CC)[C@@H](C)CC [Compound 15] (H-H[Aib]EGTFTSELATILDEQAARDFIAWLIQHKITD-OH)	0.038	0.005
CC[C@H](C)[C@H](NC(=O)[C@H](CC(C)C)NC(=O)[C@H](Cc1c[nH]c2ccccc12)NC(=O)[C@H](C)NC(=O)[C@@H](NC(=O)[C@H](Cc1ccccc1)NC(=O)[C@H](CC(=O)O)NC(=O)[C@H](CCCNC(=N)N)NC(=O)[C@H](C)NC(=O)[C@H](C)NC(=O)[C@H](CCC(N)=O)NC(=O)[C@H](CCC(=O)O)NC(=O)[C@H](CC(=O)O)NC(=O)[C@H](CC(C)C)NC(=O)[C@@H](NC(=O)[C@@H](NC(=O)[C@H](C)NC(=O)[C@H](CC(C)C)NC(=O)[C@H](CCC(=O)O)NC(=O)[C@H](CO)NC(=O)[C@H](CO)NC(=O)[C@H](Cc1ccccc1)NC(=O)[C@@H](NC(=O)CNC(=O)[C@H](CCC(=O)O)NC(=O)C(C)(C)NC(=O)[C@@H](N)Cc1c[nH]cn1)[C@@H](C)O)[C@@H](C)O)[C@@H](C)CC)[C@@H](C)CC)C(=O)N[C@@H](C)C(=O)N[C@@H](Cc1c[nH]cn1)C(=O)N[C@@H](CCCCN)C(=O)N[C@H](C(=O)N[C@H](C(=O)N[C@@H](CC(=O)O)C(=O)O)[C@@H](C)O)[C@@H](C)CC [Compound 2] (H-H[Aib]EGTFSSELATILDEQAARDFIAWLIAHKITD-OH)	0.034	0.046
CC[C@H](C)[C@H](NC(=O)[C@H](CC(C)C)NC(=O)[C@H](Cc1c[nH]c2ccccc12)NC(=O)[C@H](C)NC(=O)[C@@H](NC(=O)[C@H](Cc1ccccc1)NC(=O)[C@H](CC(=O)O)NC(=O)[C@H](CCCNC(=N)N)NC(=O)[C@H](C)NC(=O)[C@H](C)NC(=O)[C@H](CCCCN)NC(=O)CNC(=O)[C@H](CC(=O)O)NC(=O)[C@H](CC(C)C)NC(=O)[C@@H](NC(=O)[C@@H](NC(=O)[C@H](C)NC(=O)[C@H](CC(C)C)NC(=O)[C@H](CCC(=O)O)NC(=O)[C@H](CO)NC(=O)[C@@H](NC(=O)[C@H](Cc1ccccc1)NC(=O)[C@H](CO)NC(=O)CNC(=O)[C@H](CCC(=O)O)NC(=O)C(C)(C)NC(=O)[C@@H](N)Cc1c[nH]cn1)[C@@H](C)O)[C@@H](C)O)[C@@H](C)CC)[C@@H](C)CC)C(=O)N[C@@H](C)C(=O)N[C@@H](Cc1c[nH]cn1)C(=O)N[C@@H](CCCCN)C(=O)N[C@H](C(=O)N[C@H](C(=O)N[C@@H](CC(=O)O)C(=O)O)[C@@H](C)O)[C@@H](C)CC [Compound 31] (H-H[Aib]EGSFTSELATILDGKAARDFIAWLIAHKITD-OH)	0.078	0.02

— patent publication US11130793B2, “GLP-1/GLP-2 dual agonists” (Zealand Pharma A/S, priority 2016, dated 2021)
